In patent US20160194358A1, “LINEAR PEPTIDE ANTIBIOTCS” (priority 2013, published 2016):
Values after ≈ are worked out from the molar mass of the structure shown. Like-named read-outs stand apart in the source and are kept apart here. Where a SMILES comes first, the peptide text is derived from it. [ ]: non-standard residue; d: D form. The star is where a group is joined. boroAla((+)-pinanediol) = C[C@H](N*)B1O[C@@H]2C[C@@H]3C[C@@H](C3(C)C)[C@]2(C)O1; Benzenesulfonyl(4-Ph) = O=S(=O)(c1ccc(-c2ccccc2)cc1)*; Benzoyl(4-(4-Cl-Ph)) = O=C(c1ccc(-c2ccc(Cl)cc2)cc1)*; Ethanesulfonyl(2-NHDecyl) = CCCCCCCCCCNCCS(=O)(=O)*; Propanoyl(3-decylamino) = CCCCCCCCCCNCCC(=O)*; X34 = CCCCc1ccc(-c2ccc(S(=O)(=O)*)cc2)cc1; X21 = O=S(=O)(c1ccc(-c2ccc(Cl)cc2)nc1)*; AlaCOCOOMe = COC(=O)C(=O)[C@H](C)N*; X31 = O=S(=O)(c1ccc(-c2ccccc2)cn1)*; X35 = O=C(c1cnc(-c2ccc(Cl)cc2)nc1)*; X36 = CC(C)C#CC#Cc1ccc(C(=O)*)cc1; X23 = O=C(c1ccc(C#CC#CCCO)cc1)*; NDecylGly = CCCCCCCCCCNCC(=O)O; X22 = C[C@H](N*)C(=O)C(=O)O; Decanoyl = CCCCCCCCCC(=O)*; X37 = C[C@H](N*)B1OCCNCCO1; boroAla = C[C@H](N*)B(O)O; Dab = NCC[C@H](N)C(=O)O

Key:
[1] = system: methicillin resistant Staphylococcus aureus (MRSA) strain USA300 (NRS384)
Method: (§1) In vitro antimicrobial activity of each compound was determined by measuring minimal inhibitor concentrations (MICs) using the broth micro-dilution technique as approved by the Clinical and Laboratory Standards Institute (CLSI). Antibacterial activity was measure against two strains of bacteria: 1) methicillin resistant Staphylococcus aureus (MRSA) strain USA300 (NRS384) and 2) Escherichia coli strain MC4100 IMP-4213, which harbors an LptD mutation. Bacterial inocula were prepared by scraping cells into 1 mL of testing media (cation adjusted Mueller Hinton Broth supplemented with 0.002% v/v Tween-80) and diluting to a final OD600nm of 0.01.
(§2) Test compounds were prepared in DMSO at a concentration of 10 mg/ml. These compound stocks were diluted into testing media at a concentration of 64 μg/ml and 9 serial 1:2 dilutions were made in the same media, in 96-well U bottom microtiter dishes. Bacterial inocula were added to the two fold serial dilutions of test compounds to a final density of OD OD600nm of 0.0005 and incubated stationarily at 35° C. for 22 hours, after which the plates were examined visually.

[2] = system: Escherichia coli strain MC4100 IMP-4213, which harbors an LptD mutation; details: E. coli MC4100 IMP-4213; 35° C., 22 hours
Method: as §1, §2

[3] = MRSA USA300 (NRS384), 35° C., 22 hours

Row | SMILES | MIC (μg/mL) S. aureus [1, 3] [µg/mL] | MIC (μg/mL) E. coli [2] [µg/mL] | MIC (μg/mL) S. aureus ([1]; USA300, 22 h) [µg/mL]
1 | CCCCCCCCCCNCCN[C@@H](CO)C(=O)N[C@H](C(=O)N[C@@H](C)C(=O)N[C@@H](CCCCN)C(=O)N[C@@H](C)B1O[C@@H]2C[C@@H]3C[C@@H](C3(C)C)[C@]2(C)O1)[C@@H](C)O [Compound 242] | 4 (≈ 5.04 µM) | 64 (≈ 80.6 µM) | –
2 | COC(=O)C(=O)[C@H](C)NC(=O)[C@H](CCCCN)NC(=O)[C@H](C)NC(=O)[C@@H](NC(=O)[C@H](CCN)NC(=O)c1ccc(-c2ccc(Cl)cc2)cc1)[C@@H](C)O [Compound 246] ({Benzoyl(4-(4-Cl-Ph))}-[Dab]TAK-AlaCOCOOMe) | 2.3 (≈ 3.08 µM) | >64 | –
3 | CC(C)C#CC#Cc1ccc(C(=O)N[C@@H](CCN)C(=O)N[C@H](C(=O)N[C@@H](C)C(=O)N[C@@H](CCCCN)C(=O)N[C@@H](C)B2O[C@@H]3C[C@@H]4C[C@@H](C4(C)C)[C@]3(C)O2)[C@@H](C)O)cc1 [Compound 263] (X36-[Dab]TAK-{boroAla((+)-pinanediol)}) | 0.71 (≈ 0.868 µM) | 0.25 (≈ 0.306 µM) | –
4 | CCCCCCCCCCNCC(=O)N[C@H](C(=O)N[C@@H](C)C(=O)N[C@@H](CCCCN)C(=O)N[C@@H](C)B1O[C@@H]2C[C@@H]3C[C@@H](C3(C)C)[C@]2(C)O1)[C@@H](C)O [Compound 229] (H-[NDecylGly]TAK-{boroAla((+)-pinanediol)}) | 1.3 (≈ 1.8 µM) | 64 (≈ 88.8 µM) | –
5 | CCCCCCCCCCNCCC(=O)N[C@@H](CCCCN)C(=O)N[C@@H](CC(=O)O)C(=O)N[C@@H](C)C(=O)N[C@@H](CCCCN)C(=O)N[C@@H](C)B1O[C@@H]2C[C@@H]3C[C@@H](C3(C)C)[C@]2(C)O1 [Compound 224] ({Propanoyl(3-decylamino)}-KDAK-{boroAla((+)-pinanediol)}) | 11 (≈ 12.5 µM) | >64 | –
6 | CCCCCCCCCCNCCS(=O)(=O)N[C@@H](CCN)C(=O)N[C@H](C(=O)N[C@@H](C)C(=O)N[C@@H](CCCCN)C(=O)N[C@@H](C)C(=O)C(=O)O)[C@@H](C)O [Compound 253] ({Ethanesulfonyl(2-NHDecyl)}-[Dab]TAK-X22) | – | 64 (≈ 83.7 µM) | 1 (≈ 1.31 µM)
7 | CCCCCCCCCCNCCC(=O)N[C@@H](CCCCN)C(=O)N[C@H](C(=O)N[C@@H](C)C(=O)N[C@@H](CCCCN)C(=O)N[C@@H](C)B(O)O)[C@@H](C)O [Compound 218] ({Propanoyl(3-decylamino)}-KTAK-boroAla) | – | >64 | 2.1 (≈ 2.88 µM)
8 | C[C@H](NC(=O)[C@H](CCCCN)NC(=O)[C@H](C)NC(=O)[C@@H](NC(=O)[C@H](CCN)NC(=O)c1ccc(-c2ccc(Cl)cc2)cc1)[C@@H](C)O)B1O[C@@H]2C[C@@H]3C[C@@H](C3(C)C)[C@]2(C)O1 [Compound 112] ({Benzoyl(4-(4-Cl-Ph))}-[Dab]TAK-{boroAla((+)-pinanediol)}) | – | 64 (≈ 76.3 µM) | 1 (≈ 1.19 µM)
9 | CCCCCCCCCC(=O)NCC(=O)N[C@@H](CCCCN)C(=O)N[C@H](C(=O)N[C@@H](C)C(=O)N[C@@H](CCCCN)C(=O)N[C@@H](C)B1O[C@@H]2C[C@@H]3C[C@@H](C3(C)C)[C@]2(C)O1)[C@@H](C)O [Compound 259] (Decanoyl-GKTAK-{boroAla((+)-pinanediol)}) | 2.4 (≈ 2.78 µM) | 64 (≈ 74.2 µM) | –
10 | CCCCCCCCCCNCC(=O)N[C@@H](CCCCN)C(=O)N[C@H](C(=O)N[C@@H](C)C(=O)N[C@@H](CCCCN)C(=O)N[C@@H](C)B1O[C@@H]2C[C@@H]3C[C@@H](C3(C)C)[C@]2(C)O1)[C@@H](C)O [Compound 230] (H-[NDecylGly]KTAK-{boroAla((+)-pinanediol)}) | 0.36 (≈ 0.424 µM) | 32 (≈ 37.7 µM) | –
11 | C[C@H](NC(=O)[C@H](CCCCN)NC(=O)[C@H](C)NC(=O)[C@@H](NC(=O)[C@H](CCN)NS(=O)(=O)c1ccc(-c2ccc(Cl)cc2)nc1)[C@@H](C)O)B(O)O [Compound 235] (X21-[Dab]TAK-boroAla) | 16 (≈ 21.6 µM) | 32 (≈ 43.2 µM) | –
12 | CCCCc1ccc(-c2ccc(C(N[C@@H](CCCCN)C(=O)N[C@H](C(=O)N[C@@H](C)C(=O)N[C@@H](CC(C)C)C(=O)N[C@@H](C)B3O[C@@H]4C[C@@H]5C[C@@H](C5(C)C)[C@]4(C)O3)[C@@H](C)O)C(F)(F)F)cc2)cc1 (some centres unmarked) [Compound 277] | 1.4 (≈ 1.51 µM) | 4 (≈ 4.32 µM) | –
13 | CCCCCCCCCCNCCN[C@@H](CC(N)=O)C(=O)N[C@H](C(=O)N[C@@H](C)C(=O)N[C@@H](CCCCN)C(=O)N[C@@H](C)B(O)O)[C@@H](C)O [Compound 243] | – | >64 | 1.4 (≈ 2.04 µM)
14 | CCCCCCCCCCNCCC(=O)N[C@@H](CCCCN)C(=O)N[C@H](C(=O)N[C@@H](C)C(=O)N[C@@H](CC(N)=O)C(=O)N[C@@H](C)B(O)O)[C@@H](C)O [Compound 221] ({Propanoyl(3-decylamino)}-KTAN-boroAla) | – | 64 (≈ 89.5 µM) | 4 (≈ 5.6 µM)
15 | CCCCCCCCCCNCCC(=O)N[C@@H](CCCCN)C(=O)N[C@@H](C)C(=O)N[C@@H](CCCCN)C(=O)N[C@@H](C)B1O[C@@H]2C[C@@H]3C[C@@H](C3(C)C)[C@]2(C)O1 [Compound 268] | – | 8 (≈ 10.5 µM) | 0.5 (≈ 0.656 µM)
16 | C[C@H](NC(=O)[C@H](CCCCN)NC(=O)[C@H](C)NC(=O)[C@@H](NC(=O)[C@H](CCCCN)NS(=O)(=O)c1ccc(-c2ccccc2)cn1)[C@@H](C)O)B1O[C@@H]2C[C@@H]3C[C@@H](C3(C)C)[C@]2(C)O1 [Compound 231] (X31-KTAK-{boroAla((+)-pinanediol)}) | 32 (≈ 36.8 µM) | >64 | –
17 | CCCCCCCCCCNCCC(=O)N[C@@H](CCCCN)C(=O)N[C@H](C(=O)N[C@@H](C)C(=O)N[C@@H](CCCCN)C(=O)N[C@@H](C)C(=O)C(=O)O)[C@@H](C)O [Compound 249] ({Propanoyl(3-decylamino)}-KTAK-X22) | – | >64 | 0.71 (≈ 0.938 µM)
18 | C[C@H](NC(=O)[C@H](CCCCN)NC(=O)[C@H](C)NC(=O)[C@@H](NC(=O)[C@H](CCCCN)NS(=O)(=O)c1ccc(-c2ccccc2)cc1)[C@@H](C)O)B1O[C@@H]2C[C@@H]3C[C@@H](C3(C)C)[C@]2(C)O1 [Compound 133] ({Benzenesulfonyl(4-Ph)}-KTAK-{boroAla((+)-pinanediol)}) | 8 (≈ 9.22 µM) | >64 | –
19 | C[C@H](NC(=O)[C@@H](NC(=O)[C@H](CCN)NC(=O)c1ccc(-c2ccc(Cl)cc2)cc1)[C@@H](C)O)C(=O)N[C@@H](CCCCN)C(=O)N[C@@H](C)C(=O)C(=O)O [Compound 247] ({Benzoyl(4-(4-Cl-Ph))}-[Dab]TAK-X22) | 3.2 (≈ 4.37 µM) | >64 | –
20 | CCCCCCCCCCNCCNCC(=O)N[C@H](C(=O)N[C@@H](C)C(=O)N[C@@H](CCCCN)C(=O)N[C@@H](C)B1O[C@@H]2C[C@@H]3C[C@@H](C3(C)C)[C@]2(C)O1)[C@@H](C)O [Compound 244] | 0.87 (≈ 1.14 µM) | 64 (≈ 83.8 µM) | –
21 | C[C@H](NC(=O)[C@H](CCCCN)NC(=O)[C@H](C)NC(=O)[C@@H](NC(=O)[C@H](CCN)NC(=O)c1cnc(-c2ccc(Cl)cc2)nc1)[C@@H](C)O)B1O[C@@H]2C[C@@H]3C[C@@H](C3(C)C)[C@]2(C)O1 [Compound 261] (X35-[Dab]TAK-{boroAla((+)-pinanediol)}) | 1.7 (≈ 2.02 µM) | 4 (≈ 4.76 µM) | –
22 | CCCCc1ccc(-c2ccc(S(=O)(=O)N[C@@H](CCCCN)C(=O)N[C@H](C(=O)N[C@@H](C)C(=O)N[C@@H](CCCCN)C(=O)N[C@@H](C)B3O[C@@H]4C[C@@H]5C[C@@H](C5(C)C)[C@]4(C)O3)[C@@H](C)O)cc2)cc1 [Compound 236] (X34-KTAK-{boroAla((+)-pinanediol)}) | 0.5 (≈ 0.541 µM) | 16 (≈ 17.3 µM) | –
23 | C[C@H](NC(=O)[C@H](CCCCN)NC(=O)[C@H](C)NC(=O)[C@@H](NC(=O)[C@H](CCN)NC(=O)c1ccc(C#CC#CCCO)cc1)[C@@H](C)O)B1O[C@@H]2C[C@@H]3C[C@@H](C3(C)C)[C@]2(C)O1 [Compound 265] (X23-[Dab]TAK-{boroAla((+)-pinanediol)}) | 16 (≈ 19.5 µM) | 16 (≈ 19.5 µM) | –
24 | CCCCCCCCCCNCCC(=O)N[C@@H](CCCCN)C(=O)N[C@H](C(=O)N[C@@H](C)C(=O)N[C@@H](CCN)C(=O)N[C@@H](C)C(=O)C(=O)O)[C@@H](C)O [Compound 255] ({Propanoyl(3-decylamino)}-KTA[Dab]-X22) | – | >64 | 11 (≈ 15.1 µM)
25 | C[C@H](NC(=O)[C@H](CCCCN)NC(=O)[C@H](C)NC(=O)[C@@H](NC(=O)[C@H](CCN)NC(=O)c1ccc(-c2ccc(Cl)cc2)cc1)[C@@H](C)O)B1OCCNCCO1 [Compound 131] ({Benzoyl(4-(4-Cl-Ph))}-[Dab]TAK-X37) | 1 (≈ 1.29 µM) | – | –
26 | CCCCCCCCCCNCCC(=O)N[C@@H](CCCCN)C(=O)N[C@H](C(=O)N[C@@H](C)C(=O)N[C@@H](CCN)C(=O)N[C@@H](C)C(=O)C(=O)OC)[C@@H](C)O [Compound 254] ({Propanoyl(3-decylamino)}-KTA[Dab]-AlaCOCOOMe) | – | – | 16 (≈ 21.5 µM)
